Results from US20100022596A1, “EPOTHILONE ANALOGUES” (priority 2006, published 2010).
Several values for one entry are separate records, joined by “and”; a condition that tells them apart may be missing. Identical values can stand only once.

What was measured:
[1] = system: human epidermoid carcinoma cell line KB-31; test: Growth inhibition of KB-31 cells, 72 h, methylene blue staining; type: cell-based; settings: KB-31, 72 h exposure
Procedure: Determination of IC50 Values Against Human Epidermoid Carcinoma Cell Lines KB-31
Cells are exposed to compounds for 72 h. Cell numbers are estimated by quantification of protein content of fixed cells by methylene blue staining.

[2] = system: human epidermoid carcinoma cell line KB-8511; test: Growth inhibition of KB-8511 cells (P-gp170-overexpressing multidrug-resistant subline), 72 h, methylene blue staining; type: cell-based
[3] = KB-8511 (P-gp170-overexpressing), 72 h exposure
[4] = KB-8511, 72 h exposure, class symbols

Row | SMILES | IC50 [1] | IC50 ([1]; class symbols) | IC50 [2, 3] | IC50 [2, 4] | IC50 ([1]; Homo sapiens, KB 3-1, 72 h, class symbols) | IC50 ([2]; Homo sapiens, KB-8511, 72 h exposure, class symbols) | IC50 ([2]; KB-8511, 72 h exposure, class symbols, listed as drawing 62) | IC50 ([1]; Homo sapiens, KB 3-1, 72 h) | IC50 ([2]; Homo sapiens, KB-8511 (P-gp170-overexpressing), 72 h exposure)
1 | CC(=Cc1csc(C)n1)C1CC2OC(C(C)(C)C)=NC2CCCC(C)C(O)C(C)C(=O)C(C)(C)C(O)CC(=O)O1 (stereo not shown) [Compound 4d] | 12 nM | 100 to 250 nM | 55 nM | 100 to 250 nM |  |  |  |  | 
2 | CCCCC1=NC2CCCC(C)C(O)C(C)C(=O)C(C)(C)C(O)CC(=O)OC(C(C)=Cc3csc(C)n3)CC2O1 (stereo not shown) [Compound 4c] | 344 nM and 386 nM | 250 to 500 nM | 923 nM and 998 nM | 750 to 1000 nM |  |  |  |  | 
3 | COC1=NC2CCCC(C)C(O)C(C)C(=O)C(C)(C)C(O)CC(=O)OC(C(C)=Cc3csc(C)n3)CC2O1 (stereo not shown) [Compound 4e] | 1270 nM | > 1000 nM | 5520 nM | > 1000 nM |  |  |  |  | 
4 | CC(=Cc1csc(C)n1)C1CC2OC(C)=NC2CCCC(C)C(O)C(C)C(=O)C(C)(C)C(O)CC(=O)O1 (stereo not shown) [Compound 4a] | > 1000 nM | > 1000 nM | > 1000 nM | > 1000 nM |  |  |  |  | 
5 | C/C(=C\c1csc(C)n1)[C@@H]1C[C@@H]2OC(=O)NC2CCCC(C)[C@H](O)C(C)C(=O)C(C)(C)C(O)CC(=O)O1 (stereo partly shown) [Compound 1] |  |  |  |  | 500 to 750 nM | > 1000 nM |  |  | 
6 | CC(=Cc1csc(C)n1)C1CC2OC(c3ccsc3)=NC2CCCC(C)C(O)C(C)C(=O)C(C)(C)C(O)CC(=O)O1 (stereo not shown) [Compound 5l] | 42 nM |  | 146 nM |  |  |  | < 100 nM |  | 
7 | C/C(=C\c1csc(C)n1)[C@@H]1C[C@@H]2OC(=O)NC2CCCC(C)[C@H](O)C(C)C(=O)C(C)(C)C(O)CC(=O)O1 (stereo partly shown) [Compound 4h] | 640 nM |  |  |  |  |  |  | 615 nM | > 10000 nM
8 | CC(=Cc1csc(C)n1)C1CC2OC(c3ccncc3)=NC2CCCC(C)C(O)C(C)C(=O)C(C)(C)C(O)CC(=O)O1 (stereo not shown) [Compound 6a] | 30 nM | < 100 nM | 83 nM | < 100 nM |  |  |  |  | 
9 | CCC1=NC2CCCC(C)C(O)C(C)C(=O)C(C)(C)C(O)CC(=O)OC(C(C)=Cc3csc(C)n3)CC2O1 (stereo not shown) [Compound 4b] | 1860 nM | > 1000 nM | 5540 nM | > 1000 nM |  |  |  |  | 
10 | CC(=Cc1csc(C)n1)C1CC2OC(c3ccsc3)=NC2CCCC(C)C(O)C(C)C(=O)C(C)(C)C(O)CC(=O)O1 (stereo not shown) [drawing 72] |  | < 100 nM |  | 100 to 250 nM |  |  |  |  | 
